For data set [1], the system named is Murine macrophage lines (RAW264.7, J774.A1 or RAW264NO-). The data set is described as follows: Phagocytosis assay in vitro (uptake of Alexa Fluor 488-labeled particles). Format: cell-based. Set-up: effect of LR-disrupting drugs on HSP70-mediated phagocytosis: dose or concentration left out as unconfirmed. Here is the method:
Phagocytosis Assay in vitro. RAW 264.7, RAW264.7 (NO-) and J774A.1 cells were cultured in DMEM or RPMI (RAW NO-) with 10% FCS, harvested, and washed. 3×10^5 cells/well were incubated in serum-free Earle's minimal essential medium (EMEM) in a 24-well plate for 1 hour at 37° C. Alexa Fluor® 488-labeled particles (inert polystyrene microspheres; or yeast, Saccharomyces cerevisiae or Gram-negative bacteria, Escherichia coli, 40 particles/macrophage) were added and co-incubated in a dark environment for 60 minutes in serum free EMEM with or without HSPs, LPS, or control proteins. At the end of 60 minutes incubation, the plate was covered in a dark container on ice. Specific measures were taken to exclude the fluorescence that resulted from particles that were outside of the cell or sticking to the surface of the cell. […] Specifically, trypan blue (0.8 mg/ml) was added for 60 seconds and plates were analyzed immediately using FluorImager SI (Molecular Dynamics/Amersham). Since the emission of Alexa Fluor® 488, about 519 nm at an excitation of about 490 nm, falls within the absorbance range of trypan blue (475-675 nm), the fluorescence of the sample only represents the intracellular fluorescence. External or surface-bound fluorescence is quenched. Using Student's t test, the results were analyzed and P-values were calculated.
HSP-mediated phagocytosis was quantified by measuring the internalized fluorescence measured by FluorImager SI and Relative Mean Fluorescence Intensity (RMFI) was compared between the treatment groups (as indicated). All the treatment groups were compared to medium alone using the Student's t test and significance denoted by P<0.01. The error bar represents one standard deviation. The results shown are a cumulative analysis of 3 experiments, 3 wells/group.

The test system of the next data set is macrophages. In words: Trypan blue exclusion viability of treated macrophages. The settings on record: MCD-treated cells.
The test system of data set [2] is lipid raft (LR) microdomain of the macrophage plasma membrane. The data set is described as follows: Binding of exogenous HRP-labeled HSP70 to purified lipid raft fractions. Set-up: species or system murine. The settings on record: MCD (30 mM); HRP-labeled HSP70 100 μg/ml; Triton X-100. Here is the method: Purification of lipid rafts. Lipid rafts were purified as DRMs (detergent resistant membrane) using non-ionic detergents following sucrose gradient centrifugation. […] After incubation, cells were washed 3× with PBS and lysed with 2 ml MES (4-morpholinoethanesulfonic acid) buffered saline (MBS; 150 mM NaCl, 20 mM MES, pH 6.5, […] and 5 mM iodoacetamide) containing 0.5% Triton X-100 or 1% for 30 minutes on ice or 7 minutes at 37° C. respectively. The cells were mixed with an equal volume of 90% sucrose in MEB buffer (150 mM NaCl, 20 mM MES [pH 6.5]) and placed at the bottom of the centrifuge tube. […] Fractions of 1 ml each were collected from the bottom of tube and each fraction was analyzed by SDS-PAGE and immunoblotting.
Briefly, RAW264.7 macrophages were treated with exogenous HRP-labeled HSP70 (100 μg/ml) or were left untreated for 60 minutes and washed with PBS three times to remove free HSPs. […] These fractions obtained (light: LR and heavy: non-LR) were then analyzed using immunoblotting to detect HRP activity of HSP70-HRP complexes or tested for the presence of an LR-associated ganglioside GM1 by using HRP-cholera toxin B. Similarly, these fractions were tested for the amount of cholesterol using (Biovision Research Products, CA). […]

Data set [3] deals with macrophage phagocytosis in wounded mice. The data set is described as follows: Inhibition of phagocytosis in vivo by gadolinium chloride, wound closure. The settings on record: GdCl3 10 mg/kg IV day -1 and day 0; HSP70 30 μg/dose SC day 0. Here is the method:
Inhibition of Phagocytosis In vivo. Intravenous injection of gadolinium chloride inhibits phagocytosis of macrophages without affecting their viability or affecting other cell types. Mice were treated (on day minus-1 and day 0) with GdCl3 (10 mg/kg body weight in 200 μl of distilled water) administered intravenously via the retro-orbital venous plexus. Subsequently the mice were wounded as previously described (Day 0) and treated with PBS and HSP70 (30 μg/dose) given subcutaneously on day 0.
Treatment groups shown are (i) HSP70 alone; (ii) HSP70+GdCl3; (iii) PBS alone; and (iv) PBS+GdCl3. *P values were obtained using the Student's t-test by comparing the percent inhibition in wound closure of gadolinium chloride plus treatment to percent wound closure of the treatment alone.

On to methyl-β-cyclodextrin [MCD], for which the “dose dependence of inhibitory effect on macrophage response to HSP70” value in data set [1] (MCD 0-30 mM, HSP70 100 μg/ml) is listed as “titratable”. Also, the “effect of LR-disrupting drugs on HSP70-mediated phagocytosis” value in data set [1] (nystatin or MCD, labeled yeast 40 particles/macrophage) was “HSP70-mediated phagocytosis was inhibited”. Also, in the data set with macrophages, the “viability (trypan blue exclusion)” value is recorded as 95%. Also, the “effect on binding of exogenous HSP70 to lipid rafts” value in data set [2] is on record as “significant reduction in the binding of exogenously administered HSP70”.
As for `[Cl][Gd]([Cl])[Cl]` [GdCl3, gadolinium chloride], in data set [3], the “inhibition of the HSP70-mediated effects on wound healing” value was “up to 67%”.

For the origin of these results see patent US20070098735A1, “Methods for the Elimination of Pathogens and Other Particulate Agents” (priority 2005, published 2007).
